In PubChem BioAssay AID449750 (Broad Institute, 2010):
Calls of active or inactive are those of the source. The rule behind the calls is not given here.

Test: non-covalent RecA intein splicing inhibitors, dose response, biochemical, cell-free, fluorescence, secondary screen (AID 449750)

| Structure (SMILES) | AC50 |
| --- | --- |
| CCCc1[nH]nc2c1C(c1ccc(OCCN3CCOCC3)c(OC)c1)C(C#N)=C(N)O2 (stereo unspecified) | > 38 µM (inactive) |
| O=[N+]([O-])c1c(NCCO)cc(Sc2nc3ccccc3s2)c2nonc12 | 32.3 µM |
| Cc1ccc(S[C@@H](CCN2CC[C@H](C)CCC2=O)c2ccccc2)cc1 | 15.2 µM |
| Cc1oc2c(c1C(=O)N1CCOCC1)C(=O)c1ccccc1C2=O | 9.55 µM |
| CN1CCc2nc(SCC(=O)Nc3ccc(OC(F)(F)F)cc3)c(C#N)c(-c3cccs3)c2C1 | 23.7 µM |
| CC(C)NC(=S)NC(c1ccccc1)(c1ccccc1)c1ccccc1 | 27.9 µM |
| CC1=NN(c2ccc(C)c(C)c2)C(=O)C1C(c1cccc(O)c1)C1C(=O)N(c2ccc(C)c(C)c2)N=C1C (stereo unspecified) | 3.38 µM |
| CCN(CC)S(=O)(=O)c1cc(NC(=O)Cn2ncc(Cl)c(Cl)c2=O)ccc1C | 38.7 µM |
| COc1ccccc1NC(=O)c1cnc(SCC(=O)NCC2CCCO2)n(C)c1=O (stereo unspecified) | > 38 µM (inactive) |
| ClCc1nnc(-c2cc3c(s2)CCCC3)o1 | > 38 µM (inactive) |
| O=C1C(Cl)=C(NCC2CCCO2)C(=O)N1c1ccccc1 (stereo unspecified) | > 38 µM (inactive) |
| Cc1cccc(CS(=O)(=O)c2ncc(Cl)c(C(=O)NCc3ccc4c(c3)OCO4)n2)c1 | > 38 µM (inactive) |
| Cc1cc(O)ccc1Nc1nc(-c2cccs2)cs1 | 31.7 µM |
| Cc1ccc(N(C(=O)CCl)C(C(=O)NC2CCCCC2)c2cccnc2)cc1C (stereo unspecified) | 1 µM |
| Cc1ccccc1-c1cc2c(nn1)-c1ccccc1C2=O | 8.26 µM |
| Nc1nc(CCl)nc(Nc2ccc3ccccc3c2)n1 | 15.7 µM |
| CC(=O)NC1N=C(C)N(c2ccccc2)C1=O (stereo unspecified) | 33.7 µM |
| CCOC(=O)Cc1[nH]nc2c1C(c1ccsc1)C(C#N)=C(N)O2 (stereo unspecified) | > 38 µM (inactive) |
| COc1ccc(N(C(=O)COc2cccc(C)c2)S(=O)(=O)c2ccc(C)cc2)cc1 | > 38 µM (inactive) |
| O=C(Nc1ccccc1)c1nnsc1S(=O)c1ccc(Cl)cc1 (stereo unspecified) | > 38 µM (inactive) |
| COc1ccc(-c2nnc(SC(=O)N3c4ccccc4Sc4ccccc43)o2)cc1 | 4.86 µM |

| Structure (SMILES) | AC50 |
| --- | --- |
| Cn1cnc([N+](=O)[O-])c1Sc1ccc(C(C)(C)C)cc1 | > 38 µM (inactive) |
| CC(C)c1[nH]nc2c1C(c1cccs1)C(C#N)=C(N)O2 (stereo unspecified) | > 38 µM (inactive) |
| CCC(C)Nc1nc(Cl)nc(N(C#N)CN2C(=O)c3ccccc3S2(=O)=O)n1 (stereo unspecified) | > 38 µM (inactive) |
| Cc1nn(-c2ccccc2)c2c1C(c1ccncc1)C(C#N)=C(N)O2 (stereo unspecified) | > 38 µM (inactive) |
| CCOc1cc(C(c2c(C)[nH][nH]c2=O)c2c(C)[nH][nH]c2=O)ccc1OC(=O)c1cccc([N+](=O)[O-])c1 | 6.48 µM |
| CCCc1nnc(NC(=O)c2nc(S(=O)(=O)Cc3cccc(C)c3)ncc2Cl)s1 | > 38 µM (inactive) |
| CCOC(=O)c1c(CC(C)C)csc1NC(=O)CCl | 3.33 µM |
| CCc1ccc(S(=O)(=O)/N=C2\C=CC(=O)c3ccccc32)cc1 | 2.6 µM |
| COc1ccc(C2C(O)C(c3c[nH]c4ccccc34)=NN2C(=O)CCl)cc1 (stereo unspecified) | 1.22 µM |
| CC(C)Cc1ccc(-c2cc(=O)[nH][nH]2)cc1 | 13.1 µM |
| CCOc1ccc(/C=C2\SC(=S)N(CCC(=O)Nc3ccccc3C(=O)O)C2=O)cc1 | 18.3 µM |
| COc1cc(C(c2c(C)[nH][nH]c2=O)c2c(C)[nH][nH]c2=O)cc(Cl)c1O | 2.2 µM |
| CCOc1ccc(Cl)cc1C(c1c(C)[nH][nH]c1=O)c1c(C)[nH][nH]c1=O | 12 µM |
| COc1ccc(S(=O)(=O)Nc2cc(SCC(=O)O)c(O)c3ccccc23)cc1 | 2.14 µM |
| CC1CCCN(C2=C(Cl)C(=O)N(c3cccc(Cl)c3)C2=O)C1 (stereo unspecified) | > 38 µM (inactive) |
| COc1ccc(Nc2cnn(-c3nc4ccccc4s3)c(=O)c2Cl)cc1 | > 38 µM (inactive) |
| Cn1nc([N+](=O)[O-])nc1Sc1nnc(-c2ccccc2)o1 | > 38 µM (inactive) |
| CC(/C=C1\SC(=S)N(NC(=O)c2cccc(O)c2)C1=O)=C\c1ccccc1 | 20.9 µM |
| Cc1ccsc1/C=N/NC(=O)Cc1cc(=O)[nH][nH]1 | 5.95 µM |
| N#Cc1ncc(Cc2ccccc2)nc1C#N | > 38 µM (inactive) |
